{"source": "patent US6767552B2", "about": "“Adhesive treatment for oral fungal infection” (Closure Medical Corporation, priority 2001, dated 2004)", "assay": "Observation of the haloprogin / 2-octyl cyanoacrylate monomer composition in a sealed glass vial", "assay_type": "physicochemical", "conditions": "30 mg haloprogin in 2 mL 2-octyl cyanoacrylate monomer", "protocol": "A 2-octyl cyanoacrylate monomer composition is prepared by adding 30 mg of haloprogin, an anti-fungal agent, to 2 mL of 2-octyl cyanoacrylate monomer. The mixture is sealed in a glass vial and stirred. The characteristics of the composition are observed at about one minute after preparation and later at least twenty-four hours after preparation."}
{"compound": "Clc1cc(Cl)c(OCC#CI)cc1Cl", "note": "[haloprogin]", "values": [{"measurement": "premature polymerization of the monomer", "setting": "at least twenty-four hours after preparation", "value": "does not cause premature polymerization"}, {"measurement": "solubility of haloprogin in the monomer", "setting": "observed about one minute and at least twenty-four hours after preparation", "value": "soluble"}]}
